US4181803A, “Propiophenone derivatives and preparation thereof” (Eisai Co., Ltd., priority 1973, dated 1980)

How the values were obtained:
[1] = system: isolated smooth muscle preparations; assay: Smooth muscle-relaxing activity on isolated smooth muscle preparations
Source text: Additionally, anti-histamine, anti-acetylcholine, anti-serotonin and smooth muscle-relaxing activities of the compounds under test were examined on isolated smooth muscle preparations

mice = assay: Acute toxicity (24-hour mortality); assay type: in vivo; conditions: oral, from Table 1
Procedure: (§1) Male d,d-strain mice weighing 18 to 22 grs. were used for the experiments.
(§2) Groups of each 10 mice were treated orally and intraperitoneally with a wide range of doses of the above-mentioned compounds or saline.
The mortality ensued during 24 hours after the oral administration was recorded to determine acute toxicity of the compound under test on the mice.

[2] = system: motor function and maintenance of righting reflex; assay: animal or person; assay type: in vivo, male d,d-strain mice; conditions: Mus musculus, po, 1 h, read-out: Motor Ataxia, ED50
Procedure: as §1, §2
The numerals given in the following Table 1 indicate ED50 values (in mg/kg) which were calculated 60 minutes after the oral administration of the compounds under test.

Which results are given for `CCCc1ccc(C(=O)C(C)CN2CCCCC2)cc1.Cl` (stereo not shown) [Compound B, 4'-n-propyl-2-methyl-3-piperidino-propiophenone hydrochloride]?
smooth muscle-relaxant activity (in words) [1]: strong; acute toxicity compared with Compound under control (in words) (mice): almost equivalent; ED50 [2]: 800 mg/kg

What does the source list for `CC(CN1CCCCC1)C(=O)c1ccc(C(C)C)cc1.Cl` (stereo not shown) [Compound C, 4'-isopropyl-2-methyl-3-piperidino-propiophenone hydrochloride]?
smooth muscle-relaxant activity (in words) [1]: strong; ED50 [2]: 84 mg/kg

Which “smooth muscle-relaxant activity (in words)” value [1] does the source give for `Cc1ccc(C(=O)C(C)CN2CCCCC2)cc1.Cl` (stereo not shown) [Compound for control, 2,4'-dimethyl-3-piperidino-propiophenone hydrochloride, reference compound] here?
Its value is “weak”.

What about the ED50 [2] of the same molecule?
The ED50 was 800 mg/kg.

For `CCc1ccc(C(=O)C(C)CN2CCCCC2)cc1.Cl` (stereo not shown) [Compound A, 4'-ethyl-2-methyl-3-piperidino-propiophenone hydrochloride], which “smooth muscle-relaxant activity (in words)” value [1] is on record?
The value was “strong”.

What about the “acute toxicity compared with Compound under control (in words)” value (mice) of the same molecule?
The value was “slightly stronger”.

And the ED50 [2]?
The ED50 was 640 mg/kg.
